In patent publication US20230087865A1, “PHARMACEUTICAL COMPOSITION FOR ORAL ADMINISTRATION” (HK INNO. N CORPORATION, priority 2020, published 2023):
Where a name gives a salt, the structure may show the parent alone.

Assay: Evaluation of compatibility between tegoprazan and clopidogrel sulfate (2 weeks, HDPE bottle)
Assay type: physicochemical
Details: for content, component in mixture: mixture of tegoprazan and clopidogrel sulfate
Method: Example 1. Evaluation of Compatibility Between Tegoprazan and Clopidogrel Sulfate
According to Table 1 above, in order to examine the effect of each of tegoprazan and clopidogrel hydrogen sulfate, compatibility therebetween was evaluated under storage conditions according to the ICH guideline recommendations and drug safety test regulations.
It was shown that, when the two components came into direct contact with each other under each storage condition, the contents of the two components decreased.

[1] = 2 weeks, Accelerated conditions (40° C./RH 75 ± 5%)
[2] = 2 weeks, Stressed conditions (60° C./RH 75 ± 5%)

Row | content, component alone [1] [%] | content, component alone [2] [%] | content, component alone (Initial (room temperature)) [%] | content, component in mixture [1] [%] | content, component in mixture [2] [%] | content, component in mixture (Initial (room temperature)) [%] | Structure (SMILES)
1 | 101.1 | 98.3 | 100.2 | 78.9 | 49.0 | 100.3 | COC(=O)[C@H](c1ccccc1Cl)N1CCc2sccc2C1 [Clopidogrel sulfate, methyl (+)-(S)-α-(2-chlorophenyl)-6,7-dihydrothieno[3,2-c]pyridine-5(4H)-acetate]
2 | 100.3 | 99.1 | 99.8 | 92.0 | 10.5 | 99.7 | Cc1nc2cc(C(=O)N(C)C)cc(O[C@H]3CCOc4cc(F)cc(F)c43)c2[nH]1 [Tegoprazan, (S)-4-((5,7-difluorochroman-4-yl)oxy)-N,N,2-trimethyl-1H-benzo[d]imidazole-6-carboxamide]
